What was measured:
Assay type in all cases: in vivo
[1] = system: LCB1 and LCB2 mRNA; test: SPT gene expression (LCB1, LCB2 mRNA) in liver by RT-PCR; details: 0.3 mg/kg/day diet admix, 12 weeks, Western diet-fed ApoE KO mice
Experimental: SPT expression and activity—Total RNA was isolated from liver and aorta using Trizol (Invitrogen, Calif.). LCB1 and LCB2 mRNA levels were measured by real-time (RT) polymerase chain reaction (PCR) on ABI Prism 7900HT Sequence Detection System (Applied Biosystems, Foster City, Calif.). The following primers and probe sets were utilized: LCB1, forward primer, 5′-CCGCTCCTTCGTGGTTGA-3′: reverse primer, 5′-[…]-3′: probe, 5′FAM-[…]-3′; LCB2, forward primer, 5′-[…]-3′, reverse primer, 5′-CCTCAGGATCCAGGCCM-3′, probe, 5′FAM-[…]-3′. The optimum number of cycles was set for each gene product with uniform amplification. Each mRNA level was expressed as a ratio to 18s ribosomal RND or as a ratio to GAPDH RNA.
FIGS. 1-A, 1-B, 1-C, 1-D and 1-E. SPT gene expression and enzyme activity. Mice were treated with 0.3 mg/kg/day myriocin for 12 weeks by mixing with Western diet chow. Liver was isolated and total mRNA and cell-free homogenate were prepared. SPT mRNA expression was quantified by quantitative RT-PCR. Expression was described as a ratio of LCB1 (A) or LCB2 (B) mRNA to 18s RNA or to rodent GAPDH RNA (n=5, P>0.05). SPT activity of cell-free homogenate (C) was measured with ^14C-labeled Serine and palmitoyl-coenzyme A as substrates and analyzed by TLC. Relative amounts of 3-ketosphinganine were determined by densitometry scanning. The values reported are mean±SEM (n=3, *P<0.05).

[2] = system: ApoE KO mice fed a Western diet; test: Plasma serum amyloid A by ELISA, cuffed femoral artery study; details: 4 weeks
Experimental: Plasma lipids and serum amyloid A measurement—Mice were sacrificed by CO2 inhalation and blood was collected through cardiac puncture. Plasma concentrations of total cholesterol and triglyceride were determined enzymatically on a Cobas Mira Plus auto-analyzer using Cholesterol R1 and Triglycerides Reagent methods, respectively (Roche Diagnostics, Indiana, USA). Colormetric changes were measured at 500 nm. Lipoproteins were separated from mouse plasma by fast-protein liquid chromatography utilizing a Superose 6HR column. Cholesterol distribution among lipoproteins was determined by in-line post column analysis (K. A. Kieft, T. M. Bocan and B. R. Krause, J. Lipid Res. 1991; 32:859-66). Serum Amyloid A (SAA) protein in plasma was measured by ELISA according to the manufacturer's instructions (Biosource).
FIG. 5. Lesion Development in the Cuffed Femoral Artery of ApoE KO mice Fed a Western Diet. Mice were anesthetized and the right femoral artery was dissected from its surroundings. A nonconstrictive polyethylene cuff (Portex, 0.40-mm inner diameter, 0.80-mm outer diameter, and 1.5-mm length) was placed looselyaround the right femoral artery. […] Atherosclerotic lesion (black bar) and macrophage size (gray bar) in the femoral artery were quantified by using Image Pro Plus software (FIG. 5A). Plasma serum amyloid A levels were determined by colormetric ELISA (FIG. 5B). […]

[3] = system: ApoE KO mice fed a Western diet; test: Incorporation of T lymphocytes into lesion of aortic root; details: 12 weeks
Experimental: For histological analysis, the mice were perfused and fixed in Zinc-Tris fixative. Paraffin embedded sections were stained with Masson's Trichrome. Intimal macrophages were immunohistochemically stained using MAC-2 antibody (clone M3/38 from Cedarlane Laboratories Limited) counterstained with Verhoeff elastic stain. T-lymphocytes were immunohistochemically stained with rat CD3 antibody (clone CD3-12, Serotec). Lesion thickness and area occupied by macrophages were determined using Image Pro Plus software. FIG. 14. Incorporation of T lymphocytes into lesion of aortic root. Cross section of aortic root was stained by rat CD3 antibody and developed by diaminobenzidine (brown color) to detect incorporated T lymphocytes. Sections were counterstained with Harris hematoxylin (blue). T-lymphocyte incorporation was quantified by measuring number of intimal T lymphocytes in aortic root (FIG. 14). Values are mean±SEM (n=5; *P<0.05, Western diet vs standard chow; #P<0.05, Western diet plus myriocin vs standard chow). Bar represents 50 μm.

CCCCCCC(=O)CCCCCC/C=C/C[C@@H](O)[C@H](O)[C@@](N)(CO)C(=O)O [myriocin]
effect on expression of LCB1 and LCB2 mRNA in the liver [1]: no effect
plasma serum amyloid A lowered [2]: 84%
accumulation of T cells in lesion of aortic root [3]: not affected

Reference: US20080027088A1, “Imidazole-Based Hmg-Coa Reductase Inhibitors” (Warner-Lambert Company, LLC, priority 2004, published 2008)
